The text below walks through data of patent US9403798B2, “Triazinone compound and T-type calcium channel inhibitor” (NISSAN CHEMICAL INDUSTRIES, LTD., priority 2012, dated 2016).

Each structure is given as a SMILES string.

The target in the assay is T1, Human T-type calcium channel (Cav 3.2) (Homo sapiens, UniProt O95180).
T1 construct: Edward Perez-Reyes, University of Virginia, USA; host or cells: HEK293
T1 sequence (O95180 whole entry): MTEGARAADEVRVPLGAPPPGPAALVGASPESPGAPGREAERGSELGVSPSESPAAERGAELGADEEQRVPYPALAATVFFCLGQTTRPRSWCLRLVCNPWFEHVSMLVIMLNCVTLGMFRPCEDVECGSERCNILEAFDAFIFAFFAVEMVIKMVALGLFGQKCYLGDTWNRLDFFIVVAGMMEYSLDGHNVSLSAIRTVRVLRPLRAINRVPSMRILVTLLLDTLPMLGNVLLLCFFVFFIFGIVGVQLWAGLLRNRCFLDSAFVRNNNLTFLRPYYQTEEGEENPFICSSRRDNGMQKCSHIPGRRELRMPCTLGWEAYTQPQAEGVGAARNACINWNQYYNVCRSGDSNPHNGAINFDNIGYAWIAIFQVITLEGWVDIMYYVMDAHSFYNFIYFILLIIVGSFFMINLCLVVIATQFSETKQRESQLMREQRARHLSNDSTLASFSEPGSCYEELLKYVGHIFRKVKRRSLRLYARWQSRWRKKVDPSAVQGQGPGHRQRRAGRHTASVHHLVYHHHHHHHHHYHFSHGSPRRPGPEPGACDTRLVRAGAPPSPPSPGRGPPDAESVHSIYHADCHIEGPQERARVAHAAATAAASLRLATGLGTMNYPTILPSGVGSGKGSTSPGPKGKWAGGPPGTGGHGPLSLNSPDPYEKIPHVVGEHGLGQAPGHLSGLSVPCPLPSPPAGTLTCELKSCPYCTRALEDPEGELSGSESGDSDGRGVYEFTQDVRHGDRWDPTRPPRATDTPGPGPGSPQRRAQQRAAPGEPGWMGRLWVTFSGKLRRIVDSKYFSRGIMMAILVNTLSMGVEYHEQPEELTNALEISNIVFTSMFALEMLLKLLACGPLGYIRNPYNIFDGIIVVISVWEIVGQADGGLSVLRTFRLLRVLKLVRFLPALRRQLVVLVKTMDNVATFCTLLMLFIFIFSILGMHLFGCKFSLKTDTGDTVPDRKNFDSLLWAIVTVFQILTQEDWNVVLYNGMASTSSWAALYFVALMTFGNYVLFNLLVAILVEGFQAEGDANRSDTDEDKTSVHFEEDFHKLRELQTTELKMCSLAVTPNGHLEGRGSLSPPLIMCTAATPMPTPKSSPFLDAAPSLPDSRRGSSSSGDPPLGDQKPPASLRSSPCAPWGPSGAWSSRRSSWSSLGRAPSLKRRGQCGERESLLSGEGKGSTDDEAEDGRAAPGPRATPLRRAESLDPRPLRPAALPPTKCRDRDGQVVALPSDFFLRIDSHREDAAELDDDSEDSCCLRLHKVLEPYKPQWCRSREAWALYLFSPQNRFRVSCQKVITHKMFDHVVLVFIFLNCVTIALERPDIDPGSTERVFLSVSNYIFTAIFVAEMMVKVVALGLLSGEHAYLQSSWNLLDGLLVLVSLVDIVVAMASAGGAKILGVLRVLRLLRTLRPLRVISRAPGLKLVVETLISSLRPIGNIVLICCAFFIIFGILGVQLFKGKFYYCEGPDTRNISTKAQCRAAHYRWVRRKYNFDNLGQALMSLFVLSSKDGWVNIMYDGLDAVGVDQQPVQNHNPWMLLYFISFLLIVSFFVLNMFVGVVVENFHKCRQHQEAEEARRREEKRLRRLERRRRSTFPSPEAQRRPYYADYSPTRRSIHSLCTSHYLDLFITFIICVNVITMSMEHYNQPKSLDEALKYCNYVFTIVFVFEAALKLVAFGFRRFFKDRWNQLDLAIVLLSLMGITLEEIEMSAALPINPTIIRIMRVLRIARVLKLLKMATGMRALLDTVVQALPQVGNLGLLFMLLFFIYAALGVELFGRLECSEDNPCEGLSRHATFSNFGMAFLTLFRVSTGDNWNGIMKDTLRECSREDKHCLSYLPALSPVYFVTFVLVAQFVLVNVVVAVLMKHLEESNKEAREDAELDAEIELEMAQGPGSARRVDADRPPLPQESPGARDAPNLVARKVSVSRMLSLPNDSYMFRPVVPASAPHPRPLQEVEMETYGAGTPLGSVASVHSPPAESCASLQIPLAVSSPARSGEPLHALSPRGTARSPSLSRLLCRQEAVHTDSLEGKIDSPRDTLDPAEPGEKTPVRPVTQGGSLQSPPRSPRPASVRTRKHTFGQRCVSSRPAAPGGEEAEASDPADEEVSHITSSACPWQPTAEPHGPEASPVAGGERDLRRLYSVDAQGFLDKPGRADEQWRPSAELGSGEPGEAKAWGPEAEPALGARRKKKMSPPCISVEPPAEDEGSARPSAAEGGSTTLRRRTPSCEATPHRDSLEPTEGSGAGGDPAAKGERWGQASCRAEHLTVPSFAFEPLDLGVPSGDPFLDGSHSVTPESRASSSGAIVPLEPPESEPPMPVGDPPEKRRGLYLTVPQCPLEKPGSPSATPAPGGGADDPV
Kind of assay: Calcium Influx Inhibition Assay. The format is cell-based. The settings on record: Human T-type calcium channel (Cav 3.2) expressing HEK293 cells, FLIPR Calcium 4 fluorescence. On the procedure:
1. Calcium Influx Inhibition Assay
Human T-type calcium channel (Cav 3.2) expressing HEK293 cells were obtained from Prof. Edward Perez-Reyes, University of Virginia, USA. The calcium-sensitive fluorescent dye used was FLIPR Calcium 4 Assay Kit (Molecular Devices). To a black 96-well plate with a clear bottom coated with type I collagen, the human T-type calcium channel (Cav 3.2) expressing HEK293 cells were seeded and cultured overnight, and the culture medium was removed. A solution of the calcium-sensitive fluorescent dye was added, and the plate was incubated at 37° C. in an atmosphere of 5% carbon dioxide for 30 minutes. To the plate, a diluted solution of a compound was added, and the whole was further incubated at 37° C. in an atmosphere of 5% carbon dioxide for 30 minutes. While fluorescence was continuously analyzed from the bottom with a FlexStation 3 (Molecular Devices), a calcium solution was added. […] From the rise in the fluorescence from the base line, the inhibition percentage was calculated. The logarithms of compound concentrations were plotted with respect to the inhibition activities to give an IC50 value.
A word on the IC50: it is the point on the concentration scale where inhibition reaches its midpoint. `Cc1nc(N2CCN(C34CC5CC(CC(C5)C3)C4)CC2)nc(=O)n1Cc1ccc(C(F)(F)F)s1` [compound 382]: the IC50 was 0.86 µM. With `COc1nc(C2=CCN(c3ncn(Cc4ccc(C(C)(C)C)s4)c(=O)n3)C[C@@H]2O)ccc1Cl` [compound 413] the figure was 0.0069 µM; with `O=c1nc(N2CCN(c3ccc(Cl)cc3F)CC2)ncn1Cn1ccc(C(F)(F)F)n1` [compound 60], 0.42 µM. With `Cc1csc(C2=CCN(c3ncn(Cc4ccc(C(F)(F)F)s4)c(=O)n3)C[C@@H]2O)c1` [compound 327] the figure was 0.004 µM. With `O=c1nc(N[C@@H]2CCCN(c3ccc(F)cc3)C2)ncn1Cc1ccc(Cl)cc1` [compound 82], the IC50 worked out at 0.12 µM. With `O=c1nc(N[C@@H]2CO[C@H](c3ccc(F)cc3)C2)ncn1Cc1ccc(C(F)(F)F)s1` (racemic) [compound 309] the figure was 0.52 µM; with `CC(C)(C)c1cc(Cn2cnc(N3CCN(c4ccc(F)cc4)CC3)nc2=O)[nH]n1` [compound 15], 0.28 µM; with `Cc1nc(N2CCN(c3ccccc3)CC(F)(F)C2)nc(=O)n1Cc1ccc(C(F)(F)F)s1` [compound 377], 0.41 µM.

On to `Cc1cc(N2CCN(c3ncn(Cc4ccc(C(F)(F)F)o4)c(=O)n3)CC2)cs1` [compound 436], for which the IC50 was found to be 0.33 µM.

For `Cc1cc(F)ccc1C1=CCN(c2nc(C)n(Cc3ccc(C(C)(C)C)s3)c(=O)n2)C[C@@H]1O` [compound 423], the IC50 worked out at 0.04 µM.
